molecular target: Histone-lysine N-methyltransferase, H3 lysine-79 specific (Homo sapiens, UniProt Q8TEK3); experiment: Inhibition of recombinant human N-terminal GST-tagged DOT1L (2 to 416 residues) expressed in Escherichia coli assessed as reduction in histone H3 lysine-N-methyltransferase activity using nucleosomes after 3 hrs in presence of SAM by AlphLisa assay
Sequence (Q8TEK3 whole entry, the tested form may be a part): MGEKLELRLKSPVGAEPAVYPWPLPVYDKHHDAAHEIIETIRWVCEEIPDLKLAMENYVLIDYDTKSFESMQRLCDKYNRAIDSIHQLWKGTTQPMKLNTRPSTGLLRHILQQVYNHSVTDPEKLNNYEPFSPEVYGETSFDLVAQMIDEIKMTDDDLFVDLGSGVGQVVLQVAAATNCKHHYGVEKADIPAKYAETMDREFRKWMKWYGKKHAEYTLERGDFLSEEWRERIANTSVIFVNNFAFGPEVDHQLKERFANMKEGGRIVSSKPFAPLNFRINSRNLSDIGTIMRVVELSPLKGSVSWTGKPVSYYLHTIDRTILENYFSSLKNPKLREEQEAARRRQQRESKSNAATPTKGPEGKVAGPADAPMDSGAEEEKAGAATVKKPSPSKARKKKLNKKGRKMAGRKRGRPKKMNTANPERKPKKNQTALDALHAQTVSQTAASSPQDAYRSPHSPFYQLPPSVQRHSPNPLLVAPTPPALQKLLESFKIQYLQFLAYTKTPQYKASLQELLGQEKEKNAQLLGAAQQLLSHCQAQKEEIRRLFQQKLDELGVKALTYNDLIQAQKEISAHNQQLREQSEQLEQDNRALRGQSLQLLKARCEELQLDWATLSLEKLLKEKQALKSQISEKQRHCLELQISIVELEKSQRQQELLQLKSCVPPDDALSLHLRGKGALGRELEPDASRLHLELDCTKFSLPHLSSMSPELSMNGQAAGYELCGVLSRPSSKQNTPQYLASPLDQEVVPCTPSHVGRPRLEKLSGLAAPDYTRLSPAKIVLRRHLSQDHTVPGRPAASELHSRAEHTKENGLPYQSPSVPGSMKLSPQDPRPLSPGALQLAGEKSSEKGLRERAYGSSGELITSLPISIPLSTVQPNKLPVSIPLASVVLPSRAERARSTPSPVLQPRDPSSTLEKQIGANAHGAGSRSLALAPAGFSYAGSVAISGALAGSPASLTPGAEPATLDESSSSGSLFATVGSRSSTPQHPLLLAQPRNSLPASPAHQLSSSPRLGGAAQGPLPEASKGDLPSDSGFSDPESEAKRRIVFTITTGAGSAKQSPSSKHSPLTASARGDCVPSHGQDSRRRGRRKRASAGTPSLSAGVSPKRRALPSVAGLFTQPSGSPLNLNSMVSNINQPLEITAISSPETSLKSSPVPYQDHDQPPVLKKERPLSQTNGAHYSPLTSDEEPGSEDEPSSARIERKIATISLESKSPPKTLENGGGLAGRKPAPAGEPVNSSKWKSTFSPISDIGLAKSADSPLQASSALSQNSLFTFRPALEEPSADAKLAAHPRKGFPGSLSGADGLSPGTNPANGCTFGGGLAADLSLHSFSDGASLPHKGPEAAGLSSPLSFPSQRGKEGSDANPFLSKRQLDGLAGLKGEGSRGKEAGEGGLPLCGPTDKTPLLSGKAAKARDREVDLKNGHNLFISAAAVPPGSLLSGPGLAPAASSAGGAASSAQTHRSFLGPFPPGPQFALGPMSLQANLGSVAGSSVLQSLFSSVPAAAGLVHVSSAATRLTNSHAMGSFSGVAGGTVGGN

IC50 [nM] | Compound
690 | C[C@H](NC1CC(CCc2nc3cc(C(C)(C)C)ccc3[nH]2)C1)[C@H]1O[C@@H](n2cnc3c(N)ncnc32)[C@H](O)[C@@H]1O (some centres undefined)
1430 | C[C@@H]([C@H]1O[C@@H](n2cnc3c(N)ncnc32)[C@H](O)[C@@H]1O)N(C1CCC1)C1CC(CCc2nc3cc(C(C)(C)C)ccc3[nH]2)C1 (some centres undefined)
6.34 | CC(C)N(CCCNC(=O)Nc1ccc(C(C)(C)C)cc1)[C@@H](C)[C@H]1O[C@@H](n2cnc3c(N)ncnc32)[C@H](O)[C@@H]1O
2160 | C[C@@H]([C@H]1O[C@@H](n2cnc3c(N)ncnc32)[C@H](O)[C@@H]1O)N(C1CC(CCc2nc3cc(C(C)(C)C)ccc3[nH]2)C1)C1CC(CCc2nc3cc(C(C)(C)C)ccc3[nH]2)C1 (some centres undefined)

Reference: ChEMBL document CHEMBL4043280, “Preparation of 5'-deoxy-5'-amino-5'-C-methyl adenosine derivatives and their activity against DOT1L” (Bioorg Med Chem Lett, 2017)
